The target of one data set is hROMK (human Kir1.1) (Homo sapiens (Human), UniProt P48048). The data set can be described thus: Thallium Flux Assay (FluxOR, CHO T-Rex hROMK stable cell line). Format: cell-based. To be noted: CHO T-Rex hROMK cells, 10-point concentration response curve; read-out: Human ROMK TH Flux IC50.
The next data set addresses hERG channels (Homo sapiens (Human), UniProt Q12809). In words: hERG Manual Patch Clamp Assay (HEK 293 cells stably expressing hERG channels). Format: cell-based. To be noted: human, HEK 293 cells stably expressing hERG channels, pH 7.4. For orientation: Block of hERG is tested as a sign of cardiac risk.

pIC50: −log10 of the molar value.

What is called pIC50 is −log10 of the IC50, conventionally taken in molar units. As usually defined, the inhibition is the relative decrease from the control value, in per cent. Higher therefore signals a strong effect.

hROMK (human Kir1.1), sequence (P48048 whole entry): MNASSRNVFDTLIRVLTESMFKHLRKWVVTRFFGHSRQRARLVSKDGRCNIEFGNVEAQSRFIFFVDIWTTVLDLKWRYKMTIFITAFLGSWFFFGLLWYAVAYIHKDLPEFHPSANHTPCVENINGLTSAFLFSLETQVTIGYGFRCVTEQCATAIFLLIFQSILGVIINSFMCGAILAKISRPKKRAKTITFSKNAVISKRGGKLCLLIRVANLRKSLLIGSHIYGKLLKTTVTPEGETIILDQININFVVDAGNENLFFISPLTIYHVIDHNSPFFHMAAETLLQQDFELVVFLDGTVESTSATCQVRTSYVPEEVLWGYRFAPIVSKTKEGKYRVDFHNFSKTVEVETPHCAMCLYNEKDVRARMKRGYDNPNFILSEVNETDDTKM
hERG channels, sequence (Q12809 whole entry): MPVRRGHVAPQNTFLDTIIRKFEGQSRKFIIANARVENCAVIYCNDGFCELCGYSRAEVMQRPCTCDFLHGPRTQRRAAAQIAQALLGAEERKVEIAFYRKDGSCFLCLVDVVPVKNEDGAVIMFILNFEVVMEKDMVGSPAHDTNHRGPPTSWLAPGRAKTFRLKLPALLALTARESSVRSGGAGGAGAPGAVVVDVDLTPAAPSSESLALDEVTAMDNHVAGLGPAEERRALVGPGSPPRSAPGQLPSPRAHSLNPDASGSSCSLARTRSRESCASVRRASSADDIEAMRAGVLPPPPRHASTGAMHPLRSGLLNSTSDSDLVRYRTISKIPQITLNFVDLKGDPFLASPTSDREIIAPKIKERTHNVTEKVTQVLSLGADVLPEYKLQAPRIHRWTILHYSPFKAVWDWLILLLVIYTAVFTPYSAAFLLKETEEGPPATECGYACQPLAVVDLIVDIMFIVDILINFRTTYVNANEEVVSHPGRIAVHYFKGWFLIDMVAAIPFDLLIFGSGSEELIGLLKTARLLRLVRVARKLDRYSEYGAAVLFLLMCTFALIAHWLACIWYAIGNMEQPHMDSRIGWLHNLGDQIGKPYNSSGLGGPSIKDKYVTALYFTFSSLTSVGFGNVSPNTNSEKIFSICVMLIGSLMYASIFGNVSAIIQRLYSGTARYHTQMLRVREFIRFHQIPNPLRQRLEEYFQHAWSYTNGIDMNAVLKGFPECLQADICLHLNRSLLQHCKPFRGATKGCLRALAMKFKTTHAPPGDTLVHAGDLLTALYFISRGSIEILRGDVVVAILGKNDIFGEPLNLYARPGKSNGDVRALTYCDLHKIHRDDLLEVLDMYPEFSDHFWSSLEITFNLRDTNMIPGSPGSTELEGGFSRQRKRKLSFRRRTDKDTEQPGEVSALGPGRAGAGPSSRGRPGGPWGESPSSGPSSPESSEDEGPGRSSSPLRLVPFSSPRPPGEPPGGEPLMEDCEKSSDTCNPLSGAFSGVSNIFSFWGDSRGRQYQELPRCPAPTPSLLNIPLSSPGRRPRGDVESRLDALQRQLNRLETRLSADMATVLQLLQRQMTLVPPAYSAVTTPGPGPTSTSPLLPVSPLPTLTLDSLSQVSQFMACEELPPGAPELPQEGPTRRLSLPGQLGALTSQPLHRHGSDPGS
Experimental for hERG channels: hERG electrophysiology assay: The experimental compounds were assessed for hERG activity on HEK 293 cells stably expressing hERG channels using patch clamp technique. Coverslips plated with hERG expressing cells were placed in the experimental chamber and were perfused with a solution composed of (in mM): 140 NaCl, 4 KCl, 1.8 CaCl2), 1 MgCl2, 10 Glucose, 10 HEPES (pH 7.4, NaOH) at room temperature. Borosilicate patch pipettes had tip resistances of 2-4 Mohms when filled with an internal solution containing: 130 KCl, 1 MgCl2, 1 CaCl2), 10 EGTA, 10 HEPES, 5 ATP-K2 (pH 7.2, KOH). The cells were clamped at −80 mV in whole cell configuration using an Axopatch 200B (Axon instruments, Union City, Calif.) patch clamp amplifier controlled by pClamp (Axon instruments) software. Upon formation of a gigaseal, the following voltage protocol was repeatedly (0.05 Hz) applied to record tail currents: depolarization step from −80 mV to +20 mV for 2 seconds followed by a hyperpolarization step to −65 mV (3 seconds) to elicit tail currents. Compounds were applied after stabilization of tail current. First, tail currents were recorded in presence of extracellular solution alone (control) and subsequently, in extracellular solution containing increasing compound concentrations. Each compound concentration was applied for 2-5 minutes. The percentage inhibition at each concentration was calculated as reduction in peak tail current with respect to the peak tail current recorded in the presence of control solution. Data analysis was performed in a custom made template. The percent inhibitions at different concentrations were plotted to obtain a concentration response curve, which was subsequently fitted with a four parameter equation to calculate hERG IC50 value.
A lower hERG % Inhibition value indicates less inhibition of the hERG current

On to `Cc1c(C(O)CN(C)Cc2ccc(-n3ccc4c(C#N)cccc43)cc2)ccc2c1COC2=O` (single isomer, unassigned) [Example 28-I, 1-(4-(((2-hydroxy-2-(4-methyl-1-oxo-1,3-dihydroisobenzofuran-5-yl)ethyl)(methyl)amino)methyl)phenyl)-1H-indole-4-carbonitrile], for which the pIC50 on hROMK (human Kir1.1) was 6.74. The same molecule showed an inhibition at 1 µM on hERG channels of 94%.

Turning to `Cc1cc(-c2ccc(CN(C)CC(O)c3ccc4c(c3C)COC4=O)cc2)ncc1C#N` (single isomer, unassigned) [Example 31-I, 6-(4-(((2-hydroxy-2-(4-methyl-1-oxo-1,3-dihydroisobenzofuran-5-yl)ethyl)(methyl)amino)methyl)phenyl)-4-methylnicotinonitrile], the pIC50 on hROMK (human Kir1.1) was 7.40. Moreover, the inhibition at 1 µM at hERG channels came to 39%.

As for `Cc1c([C@@H](O)CNCc2cnn(-c3cc(F)c4oc(=O)n(C)c4c3)c2)ccc2c1COC2=O` (single isomer, unassigned) [Example 107], on hROMK (human Kir1.1), the pIC50 is 7.57. At hERG channels, the inhibition at 1 µM was 20%.

With `Cc1cc(-n2cc(CNC(C)C(O)c3ccc4c(c3C)COC4=O)cn2)ncc1C#N` (single isomer, unassigned) [Example 176-I, 6-(4-(((1-hydroxy-1-(4-methyl-1-oxo-1,3-dihydroisobenzofuran-5-yl)propan-2-yl)amino)methyl)-1H-pyrazol-1-yl)-4-methylnicotinonitrile], the negative logarithm of the IC50 (pIC50) at hROMK (human Kir1.1) was 8.40. In addition, on hERG channels, the inhibition at 1 µM was determined as 44%.

On to `Cc1c(C(O)CNCc2ccc(-c3ccc(C#N)c(F)c3)cc2)ccc2c1COC2=O` (centres unmarked) [Example 10-I, 3-fluoro-4′-(((2-hydroxy-2-(4-methyl-1-oxo-1,3-dihydroisobenzofuran-5-yl)ethyl)amino)methyl)-[1,1′-biphenyl]-4-carbonitrile], for which the pIC50 on hROMK (human Kir1.1) is 7.28. This molecule yielded an inhibition at 1 µM against hERG channels of 92%.

As for `Cc1c(C(O)CN(C)Cc2ccc(-n3cc(C#N)c4ccccc43)cc2)ccc2c1COC2=O` (centres unmarked) [Example 12-I, 1-(4-(((2-hydroxy-2-(4-methyl-1-oxo-1,3-dihydroisobenzofuran-5-yl)ethyl)(methyl)amino)methyl)phenyl)-1H-indole-3-carbonitrile], on hROMK (human Kir1.1), the pIC50 was 7.11. The molecule further gave an inhibition at 1 µM on hERG channels of 99%.

Take `Cc1c(C(O)CN(C)Cc2cnc(-c3ccc(C#N)c(F)c3)nc2)ccc2c1COC2=O` (centres unmarked) [Example 19-I, 2-fluoro-4-(5-(((2-hydroxy-2-(4-methyl-1-oxo-1,3-dihydroisobenzofuran-5-yl)ethyl)(methyl)amino)methyl)pyrimidin-2-yl)benzonitrile]: the pIC50 at hROMK (human Kir1.1) is 6.82. On hERG channels, this molecule returned an inhibition at 1 µM of 33%.

Regarding `COc1c(CNC[C@H](O)c2ccc3c(c2C)COC3=O)cnn1-c1cc(C)c(C#N)cn1` [Example 35, (R)-6-(4-(((2-hydroxy-2-(4-methyl-1-oxo-1,3-dihydroisobenzofuran-5-yl)ethyl)amino)methyl)-5-methoxy-1H-pyrazol-1-yl)-4-methylnicotinonitrile], at hROMK (human Kir1.1), the pIC50 was 9.00. In addition, at hERG channels, testing at 1 µM gave an inhibition of 91%.

As for `CC(=O)N[C@@H](CNCc1cnn(-c2cc(C)c(C#N)cn2)c1)c1ccc2c(c1C)COC2=O` [Example 39, (R)—N-(2-(((1-(5-cyano-4-methylpyridin-2-yl)-1H-pyrazol-4-yl)methyl)amino)-1-(4-methyl-1-oxo-1,3-dihydroisobenzofuran-5-yl)ethyl)acetamide], the pIC50 on hROMK (human Kir1.1) is 7.24. At 1 µM the inhibition against hERG channels was 2.6%.

Consider `Cc1c([C@@H](O)CNCc2cnn(-c3cnc(C#N)cn3)c2)ccc2c1COC2=O` [Example 41, (R)-5(4-(((2-hydroxy-2-(4-methyl-1-oxo-1,3-dihydroisobenzofuran-5-yl)ethyl)amino)methyl)-1H-pyrazol-1-yl)pyrazine-2-carbonitrile], for which the pIC50 at hROMK (human Kir1.1) is 7.49. For the same molecule, the inhibition at 1 µM at hERG channels was 50%.

As to `Cc1c(-c2cnn(CCNC[C@H](O)c3ccc4c(c3C)COC4=O)c2)ccc2c1COC2=O` [Example 43, (R)-5-(l-hydroxy-2-((2-(4-(4-methyl-1-oxo-1,3-dihydroisobenzofuran-5-yl)-1H-pyrazol-1-yl)ethyl)amino)ethyl)-4-methylisobenzofuran-1(3H)-one], the pIC50 at hROMK (human Kir1.1) is 7.18. The inhibition at 1 µM against hERG channels came to 7.1%.

For the molecule `Cc1c([C@@H](O)CNCc2cnc(-n3cnc(C#N)c3)nc2)ccc2c1COC2=O` [Example 45, (R)-1-(5-(((2-hydroxy-2-(4-methyl-1-oxo-1,3-dihydroisobenzofuran-5-yl)ethyl)amino)methyl)pyrimidin-2-yl)-1H-imidazole-4-carbonitrile], at hROMK (human Kir1.1), the negative logarithm of the IC50 (pIC50) is 7.92. Also, the inhibition at 1 µM at hERG channels was found to be 74%.

As for `COc1nc(-n2cc(CNC[C@H](O)c3ccc4c(c3C)COC4=O)cn2)ccc1C#N` [Example 48, (R)-6-(4-(((2-hydroxy-2-(4-methyl-1-oxo-1,3-dihydroisobenzofuran-5-yl)ethyl)amino)methyl)-1H-pyrazol-1-yl)-2-methoxynicotinonitrile], the pIC50 at hROMK (human Kir1.1) is 7.85. This molecule gave an inhibition at 1 µM on hERG channels of 67%.

Turning to `Cc1cnc(-n2cc(CNC[C@H](O)c3ccc4c(c3C)COC4=O)cn2)cc1C#N` [Example 49, (R)-2-(4-(((2-hydroxy-2-(4-methyl-1-oxo-1,3-dihydroisobenzofuran-5-yl)ethyl)amino)methyl)-1H-pyrazol-1-yl)-5-methylisonicotinonitrile], the pIC50 on hROMK (human Kir1.1) was 7.49. For the same molecule, the inhibition at 1 µM against hERG channels turned out to be 18%.

As for `COc1cc(-n2cc(CNC[C@H](O)c3ccc4c(c3C)COC4=O)nc2C)ncc1C#N` [Example 52, (R)-6-(4-(((2-hydroxy-2-(4-methyl-1-oxo-1,3-dihydroisobenzofuran-5-yl)ethyl)amino)methyl)-2-methyl-1H-imidazol-1-yl)-4-methoxynicotinonitrile], the pIC50 on hROMK (human Kir1.1) is 6.74. On hERG channels, this molecule registered an inhibition at 1 µM of 13%.

As to `COc1cc(-n2ncc3c(CNC[C@H](O)c4ccc5c(c4C)COC5=O)cccc32)ncc1C#N` [Example 55], on hROMK (human Kir1.1), the pIC50 was 7.11. At hERG channels, this molecule returned an inhibition at 1 µM of 69%.

`Cc1cc(-n2cc(CNC[C@H](NCCO)c3ccc4c(c3C)COC4=O)cn2)ncc1C#N` [Example 56, (R)-6-(4-(((2-((2-hydroxyethyl)amino)-2-(4-methyl-1-oxo-1,3-dihydroisobenzofuran-5-yl)ethyl)amino)methyl)-1H-pyrazol-1-yl)-4-methylnicotinonitrile]: the pIC50 at hROMK (human Kir1.1) is 7.10. At hERG channels, the inhibition at 1 µM was found to be 3.7%.

For `COCCN[C@@H](CNCc1cnn(-c2cc(C)c(C#N)cn2)c1)c1ccc2c(c1C)COC2=O` [Example 57, (R)-6-(4-(((2-((2-methoxyethyl)amino)-2-(4-methyl-1-oxo-1,3-dihydroisobenzofuran-5-yl)ethyl)amino)methyl)-1H-pyrazol-1-yl)-4-methylnicotinonitrile], the pIC50 at hROMK (human Kir1.1) was 6.82. Further, at hERG channels, the inhibition at 1 µM came to 35%.

Consider `COC(=O)N[C@@H](CNCc1cnn(-c2cc(C)c(C#N)cn2)c1)c1ccc2c(c1C)COC2=O` [Example 60, methyl (R)-(2-(((1-(5-cyano-4-methylpyridin-2-yl)-1H-pyrazol-4-yl)methyl)amino)-1-(4-methyl-1-oxo-1,3-dihydroisobenzofuran-5-yl)ethyl)carbamate], for which the pIC50 on hROMK (human Kir1.1) was 7.14. The inhibition at 1 µM against hERG channels was 12%.

Values taken from patent US10723723B2, “Substituted bicycle heterocyclic derivatives useful as ROMK channel inhibitors” (BRISTOL-MYERS SQUIBB COMPANY, priority 2016, dated 2020).
